Data taken from PubChem BioAssay AID449764 (Southern Research Specialized Biocontainment Screening …, 2010).

System: Mycobacterium tuberculosis H37Rv growth inhibition, no glycerol
Assay: Mycobacterium tuberculosis H37Rv growth inhibition, no glycerol, confirmatory dose response (AID 449764);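 note: growth read after 7 days of incubation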

In order of falling IC50:
1. CN(Cc1ccc(Br)cc1)C(=O)CCN1C(=O)c2cccc([N+](=O)[O-])c2C1=O  97.3 µM
2. CCOc1ccc(NCc2cccn2-c2nnc(N3CCC(C(=O)NCCCN4C(C)CCCC4C)CC3)s2)cc1 (stereo not given)  93.6 µM
3. CN(C)C(=O)c1ccc(NC(=O)COC(=O)c2cc3c(s2)CCCCC3)cc1  91.6 µM
4. COc1ccc(C(=O)/C=C/Sc2nc3ccccc3o2)cc1  90.8 µM
5. CCc1c(C)sc2nc3c(C(=O)N4CCOCC4)cc(C(=O)c4cc(F)ccc4O)cn3c(=O)c12  82.2 µM
6. CC(=O)c1c(N2CCCC2)[nH]c(-c2ccccc2)nc1=S  81.4 µM
7. O=C(CCC(=O)OCc1ccc(C(=O)Oc2ccc(Cl)cc2)cc1)Nc1ccccc1  80.2 µM
8. CCOC(=O)CNC(=O)c1sc2ncnc(N3CCc4ccccc4C3)c2c1C  79.1 µM
9. O=c1cc(N=Nc2ccc(Cl)cc2)[nH]c(=O)[nH]1  78.9 µM
10. Cc1ccc(NC(=S)N(CCCN2CCCC2)Cc2cccn2Cc2ccc(Cl)cc2)cc1C  75.5 µM
11. O=C(c1cccc(-c2ccco2)c1)N1CCCC(N2CCN(c3ccc(F)cc3)CC2)C1 (stereo not given)  74.1 µM
12. COc1cccc(NC(=S)/C(=C(\[O-])c2cc(C)n(-c3ccccc3F)c2C)[n+]2ccc(N(C)C)cc2)c1  70.2 µM
13. Cc1ccccc1NC(=O)Cc1nc(COC(=O)/C=C/c2ccccc2)cs1  67.7 µM
14. O=C(NCCc1ccccc1)[C@@H]1CC=C[C@@H]2CCN(Cc3ccc(Cl)c(Cl)c3)C(=O)[C@@H]21  63.8 µM
15. CC(C)(C)Nc1nc(NC(C)(C)C)nc(-n2ccnc2)n1  59.9 µM
16. COc1cc2nc(Nc3ccc(C)c(Cl)c3)nc(N)c2cc1OC  58.7 µM
17. Cc1ccc2nc3c(cc(C(=O)NCc4ccco4)c(=N)n3Cc3ccco3)c(=O)n2c1  53.6 µM
18. CCCn1nnc(NC(=O)COc2ccc(CC)cc2)n1  48.4 µM
19. COc1cc2c(C(=O)N3CCN(c4cccc(Cl)c4)CC3)cn(CC(C)C)c(=O)c2cc1OC  47.4 µM
20. O=C1/C(=C\c2ccncc2)CCc2ccccc21  45.9 µM
21. Cc1cc(C(=O)N/N=C\C(Br)=C\c2ccccc2)c(C)o1  44.2 µM
22. Cc1nc(-c2ccc(Cl)cc2)sc1C1(C)CC(c2ccc(C#N)cc2)=NO1 (stereo not given)  43.6 µM
23. Cc1ccc(Nc2nc(CSc3nnc(-c4cccs4)o3)cs2)cc1  43.3 µM
24. Cc1cc(Nc2cc(Cl)nc(Sc3ccc(NC(=O)C4CC4)cc3)n2)n[nH]1  43.2 µM
25. CCCNc1nc(-c2cc(C(=O)Nc3ccccc3)on2)cc(C(C)C)n1  42.5 µM
26. CCc1ccc(N=Nc2ccc(O)c3[nH]cnc23)cc1  40.7 µM
27. O=C(NCC1CCN(c2ccc(S(=O)(=O)N3CCOCC3)cc2)CC1)c1ccc(Cl)cc1  40.6 µM
28. CCC1(c2ccccc2)ON(c2c(Br)cccc2Br)C1=O (stereo not given)  40.2 µM
29. O=C(NNc1nc(-c2ccccc2)cs1)c1ccccc1  40.2 µM
30. O=C(NNc1nc2ccccc2s1)c1ccccc1F  39.9 µM
31. O=c1cc(O)c2sc3nc(-c4cccnc4)cc(C(F)(F)F)c3c2[nH]1  39.8 µM
32. O=C(CN1CCN(c2nc(-c3ccc(F)cc3)cs2)CC1)NCc1ccc2c(c1)OCO2  38.1 µM
33. Cc1cc(C)c(CSc2ncc(-c3ccc([N+](=O)[O-])cc3)[nH]2)c(C)c1  36.9 µM
34. Cc1cnc(NC(=O)NCC2CCCC(CNC(=O)Nc3ncc(C)s3)C2)s1 (stereo not given)  36.2 µM
35. Cc1cc(C=C2C(=O)NC(=S)NC2=O)c(C)n1C1CCCC1  34.9 µM
36. COc1cc(NC(=O)c2cccs2)c(C(=O)OCC(=O)NCc2ccco2)cc1OC  34.9 µM
37. C=CCN(C(=O)CSc1nc2c(sc3ccccc32)c(=O)n1CCN(CC)CC)c1ccccc1  30.8 µM
38. O=C(CCn1c(=O)c2cccn2c2cccnc21)N1CCN(c2cccc(Cl)c2)CC1  30.6 µM
39. CCOc1cc(/C=C\[N+](=O)[O-])ccc1OCC(=O)Nc1ccccc1C  29.8 µM
40. COC(=O)c1cc(Sc2cccc(Cl)c2Cl)ccn1  29 µM
41. COCCN(C(=O)C1CC(=O)N(Cc2ccccc2)C1)c1nc(-c2ccc([N+](=O)[O-])cc2)cs1 (stereo not given)  28.3 µM
42. Nc1c(N(CCC2=CCCCC2)C(=O)c2ccc([N+](=O)[O-])o2)c(=O)[nH]c(=O)n1Cc1ccccc1  27.9 µM
43. CCOc1ccc(NC(=S)Nc2ccc(C)c([N+](=O)[O-])c2)cc1  27.7 µM
44. COc1ccccc1C(CNC(=O)C(C)(C)Oc1ccc(Cl)cc1)N1CCCC1 (stereo not given)  27 µM
45. COC(=O)/C(=C1/Oc2cc(C)oc(=O)c2S1)C(F)(F)F  26 µM
46. COc1ccc(C2CC2/C(C)=N/OC(=O)c2ccc(F)cc2)cc1 (stereo not given)  25.3 µM
47. COc1ccc(CN2CCCC(C(=O)c3ccc(SC)cc3)C2)cc1Cn1cccn1 (stereo not given)  25.2 µM
48. CC1CCN(C(=S)NC(=O)c2cccs2)CC1  23 µM
49. Oc1[nH]c2ccccc2c1N=NC(=S)N1CCOCC1  22.9 µM
50. CC(C)C[C@H](NC(=O)c1nc[nH]c1C(=O)NC1CCN(C(=O)OC(C)(C)C)CC1)C(=O)OCc1ccccc1  21.8 µM
51. O=[N+]([O-])c1c(C(Cl)Cl)nn(-c2ccc(Cl)cc2)c1N1CCCCC1  21.2 µM
52. COc1cccc(-c2cnc(NCc3cc(Cl)ccc3O)n2C)c1  21.1 µM
53. CC(C)CS(=O)(=O)C1=NN2C(=N)/C(=C\c3ccc(OC(=O)c4ccco4)cc3)C(=O)N=C2S1  20.9 µM
54. CC1(c2cc([N+](=O)[O-])cc([N+](=O)[O-])c2)CC(C)(C)N(C(=O)c2ccccc2)c2ccccc21 (stereo not given)  20.8 µM
55. O=C(c1cc2nc(-c3ccc(F)cc3)cc(C(F)(F)F)n2n1)N1CCCCC1c1cccnc1 (stereo not given)  20.7 µM
56. ClCc1nc2ccccc2c2ccccc12  20.6 µM
57. Cc1cccc(/C=C/c2onc(C)c2[N+](=O)[O-])n1  20.2 µM
58. CN(C(=O)COC(=O)c1ccc([N+](=O)[O-])cc1Cl)C1CCCCC1  19.2 µM
59. CCOC(=O)CCCNC(=O)COC(=O)c1cc(Br)c(Br)s1  18.5 µM
60. CCCn1c(CC)nc([N+](=O)[O-])c1S(=O)(=O)c1ccccc1  18.2 µM
61. CC(C)OC(=O)c1ccc(COC(=O)c2cnccn2)cc1  18 µM
62. CCCCN(C)S(=O)(=O)c1ccc(C(=O)Nc2nnc(-c3ccco3)o2)cc1  17.8 µM
63. COc1cc(C(=O)/C=C/c2cccnc2)c([N+](=O)[O-])cc1OC  17.5 µM
64. Cc1cc2c(ccc3c2no[n+]3[O-])nn1  17.4 µM
65. CN1CCN(c2cc(-c3ccccc3)nc3cc(-c4ccc(F)cc4)nn23)CC1  16.4 µM
66. O=C(/C=C/c1cc(Br)ccc1O)c1ccco1  15.7 µM
67. Cc1ccc(C)c(-c2nnc(NC(=O)C3=COCCO3)o2)c1  13.9 µM
68. COc1ccc(-n2nnnc2S(=O)(=O)CC(=O)N2CCCCC2)cc1  12.5 µM
69. COc1ccccc1NC(=O)c1ccc(NC(=O)CSc2nnnn2C)cc1  11.7 µM
70. CCCc1cc(=O)n2[nH]c(C)c(-c3ccc(Cl)cc3)c2n1  11.5 µM
71. O=C(Nc1ccn(Cc2ccccc2F)n1)c1ccc(COc2ccccc2Cl)cc1  11.2 µM
72. Cc1ccc(S(=O)(=O)NNC(=O)c2cc([N+](=O)[O-])c(C)c([N+](=O)[O-])c2)cc1  10.5 µM
73. COc1ccc(CNC[C@@H](CCCCN(C)Cc2ccc(OC)cc2)N2C[C@H](c3ccccc3)N(CCc3ccc(Cl)c(Cl)c3)C(=O)C2=O)cc1  10.5 µM
74. Cc1cc2[nH]c3c(c[n+](C)c4ccccc34)c2cc1C  9.9 µM
75. CC1(O)CC(c2ccc(Cl)cc2)=NN1C(=O)c1ccc([N+](=O)[O-])cc1 (stereo not given)  7.79 µM
76. CCOc1ccc(-c2cnc(NCc3cccc4ccccc34)n2CCOC)cc1  7.03 µM
77. O=C(OCn1nnc2ccccc2c1=O)C1CCCCC1  5.88 µM
78. CCOC(=O)COn1c2c(c3c4no[n+]([O-])c4ccc31)CCCC2  5.68 µM
79. CCCCOC(=O)CCN1C(=O)/C(=C2\SC(=S)N(CCC(=O)OCCCC)C2=O)SC1=S  5.44 µM
80. CNC(CC(=O)c1ccc([N+](=O)[O-])cc1)C(Cl)(Cl)Cl (stereo not given)  5.37 µM
81. Cn1nnnc1Sc1ncnc2scc(-c3cc4ccccc4o3)c12  5.11 µM
82. COC(=O)c1ccc(NC(=O)CSc2nc3ccc(N4C(=O)C5C6C=CC(C6)C5C4=O)cc3s2)cc1 (stereo not given)  4.89 µM
83. Cc1ccc2ccc3ccc(C)nc3c2n1  1.4 µM
84. COc1ccc2[nH]c3c(C)c4ccncc4c(C)c3c2c1  1.33 µM
85. FC(F)(Cl)c1nnc2ccc(Cl)nn12  0.73 µM
